From patent US7737140B2, “Therapeutic compounds” (Allergan, Inc., priority 2008, dated 2010)

System: lashes and adjacent hairs of the eyelids
Test: Clinical observation of lashes and adjacent hairs in glaucoma patients treated with bimatoprost in one eye
Type: in vivo
Source text: In the course of treating patients having glaucoma, treatment may only be appropriate in one eye. […] The lash appearance on the lids of the treated eyes would have appeared quite attractive if it represented a bilateral phenomenon. As a result of its asymmetric nature, the long lashes on one side could be construed as disturbing from a cosmetic standpoint. A systemic examination was preformed as a result of the asymmetric phenomenon. It soon became apparent that this altered appearance was not an isolated finding. […] Definite differences could be identified to varying degrees in the lashes and adjacent hairs of all patients who were taking the drug on a unilateral basis for longer than 6 months.
The changes in the lashes were apparent on gross inspection in several patients once attention was focused on the issue. In those with light colored hair and lashes, the differences were only seen easily with the aid of the high magnification and lighting capabilities of the slit lamp biomicroscope. In the course of glaucoma follow-up examination, attention is generally immediately focused on the eye itself. As a result of the high power magnification needed only one eye is seen at a time and the eye is seen at a high enough power that the lashes are not in focus. […]

## CCNC(=O)CCC/C=C\C[C@@H]1[C@@H](/C=C/[C@@H](O)CCc2ccccc2)[C@H](O)C[C@@H]1O [bimatoprost]
Conclusion from multiple parameters of hair appearance in many subjects
  hair growth in treated versus control areas: stimulated
Glaucoma patient treated with bimatoprost in only one eye
  lashes in the treated eye compared with the non-treated eye: longer, thicker, and fuller
